Data: publication PMC7497679, “Structure-based design, synthesis, and evaluation of the biological activity of novel phosphoroorganic small molecule IAP antagonists” (Investigational New Drugs, 2020)
Like-named read-outs stand apart in the source and are kept apart here.

How the values were obtained:
UMUC-3 = test: Antiproliferative activity, SRB method; assay type: cell-based, human; settings: 72 h; for inhibition at 10 µM: Homo sapiens, UMUC3, 10 µM, read-out: mean proliferation inhibition at highest concentration used, UMUC-3
From the text: (§1) MDA-MB-231 (human breast cancer), MCF10A (human, nontumorigenic mammary gland epithelial cells), A549 (human nonsmall-cell lung cancer), UMUC-3 (human bladder cancer) and LoVo (human colon cancer) cell lines were obtained from the American Type Culture Collection (ATCC; Rockville, Maryland, USA). The MCF-7 cell line (human breast cancer) was obtained from the European Collection of Cell Cultures (ECACC; Salisbury, UK). All cell lines were maintained at the Hirszfeld Institute of Immunology and Experimental Therapy (HIIET), Wrocław, Poland. MDA-MB-231 cells were cultured in RPMI1640 medium (Thermo Fisher Scientific, Warszawa, Poland) supplemented with 2 mM L-glutamine, 1 mM sodium pyruvate, and 10% fetal bovine serum (all from Sigma-Aldrich, Poznań, Poland). The MCF10A cell line was cultured in Ham’s F12 medium with glutamine (Corning) supplemented with 5% (v/v) fetal bovine serum (FBS), 5% (v/v) horse serum, 10 µg/mL insulin, 0.05 µg/mL cholera toxin, 0.5 µg/mL hydrocortisone, and 20 ng/mL hEGF (all from Sigma-Aldrich). A549 and LoVo cells were cultured in a 1:1 (v/v) mixture of RPMI1640 and Opti-MEM (both from HIIET) supplemented with 5% (v/v) FBS and 2 mM L-glutamine. The UMUC-3 cell line was cultured in high glucose DMEM (Thermo Fisher Scientific) supplemented with 10% FBS and 2 mM Lglutamine. The MCF-7 line was cultured in Eagle’s minimal essential medium (EMEM; Thermo Fisher Scientific) supplemented with 10% (v/v) FBS, 2 mM L-glutamine, 1% (v/v) nonessential amino acids, and 8 µg/mL insulin (all from Sigma-Aldrich). All culture media contained 100 µg/mL streptomycin (Sigma-Aldrich) and 100 U/mL penicillin (Polfa Tarchomin SA, Warszawa, Poland). The cells were grown at 37 °C in a humid atmosphere saturated with 5% CO2.
(§2) Antiproliferative activity was assessed in six cell lines utilizing the sulforhodamine B (SRB) method. Briefly, cells were seeded in 96-well plates (Sarstedt, Warszawa, Poland) at a density of 5 × 10^3 cells/well, and after overnight incubation, the cells were exposed to compounds at various concentrations. After 72 h, the plates were fixed with 50% (v/v) TCA (all from Sigma-Aldrich), washed with tap water, and the precipitated proteins were labeled with 0.1% (w/v) SRB solution in 1% (v/v) AcOH. Next, the plates were washed with 1% (v/v) AcOH, and the remaining SRB dye was solubilized with 10 mM unbuffered TRIS solution. The absorbance was measured using a Biotek Hybrid H4 reader (BioTek Instruments, VT, USA) at 540 nm. Crude results were analyzed using a previously described method, and the results are expressed as the IC50 (compound concentration that reduced cell growth by 50%) compared to the vehicletreated control (0.1% (v/v) DMSO). The samples were analyzed in triplicate, and each experiment was repeated at least three times.

LoVo = test: Antiproliferative activity, SRB method; assay type: cell-based, human; settings: 72 h; for inhibition at 10 µM: Homo sapiens, LoVo, read-out: mean proliferation inhibition at highest concentration used, LoVo
From the text: as §1, §2

MCF-7 = test: Antiproliferative activity, SRB method; assay type: cell-based, human; settings: 72 h; for inhibition at 10 µM: Homo sapiens, MCF7, 10 µM, read-out: mean proliferation inhibition at highest concentration used, MCF-7
From the text: as §1, §2

MDA-MB-231 = test: Antiproliferative activity, SRB method; assay type: cell-based, human; settings: read-out: IC50 ± SD (n = 3) MDA-MB-231
From the text: as §1, §2

A549 = test: Antiproliferative activity, SRB method; assay type: cell-based, human; settings: 72 h; for inhibition at 10 µM: Homo sapiens, A549, 10 µM, read-out: mean proliferation inhibition at highest concentration used, A549
From the text: as §1, §2

MCF-10A = test: Antiproliferative activity, SRB method; assay type: cell-based, human; settings: 72 h; for inhibition at 10 µM: Homo sapiens, MCF-10A, read-out: mean proliferation inhibition at highest concentration used, MCF-10A
From the text: as §1, §2

XIAP BIR3 domain = target: T1, XIAP BIR3 domain (Homo sapiens, UniProt P98170); test: Fluorescence polarization inhibition (competition) assay; assay type: binding; settings: for inhibition at 50 µM: 0.5 h, antagonist 50 µM, inhibition of protein-probe interaction; for Ki / EC50: XIAP BIR3 50 nM, fluorescent probe 4 2 nM
T1 construct: fluorescent probe 4 and the XIAP BIR3 domain (Sino Biological, Beijing, China) were used for all measurements; purchased Sino Biological, Beijing, China
Procedure: The fluorescence polarization assay was performed at r.t. in Corning 384-well black, polystyrene flat bottom plates (Corning, NY, USA) on a Synergy H4 Hybrid Reader (BioTek, Bad Friedrichshall, Germany). For fluorescence polarization measurements, (milipolarization units, mP) 484/20 nm excitation and 528/20 nm emission filters were selected. Phosphate buffer (pH 7.5) supplemented with γ-globulin (100 µg/mL) and NaN3 (0.02% w/v), fluorescent probe 4 and the XIAP BIR3 domain (Sino Biological, Beijing, China) were used for all measurements. All experiments were performed in duplicate. The obtained fluorescence polarization assay data were analyzed with Prism 5.0 Software (GraphPad Software, San Diego, ca.).
After a 15 min incubation at r.t., fluorescent probe 4 (2 nM) was added. The values were measured 30 min after the moment the probe was added. The assay was performed in phosphate buffer with a final DMSO concentration of 1.4% (v/v). […] In order to evaluate the quality and precision of the performed screening assay, we determined the Z´ factor as described by Zhang et al.. The obtained fluorescence polarization values were used to determine the percent inhibition, which was plotted as a function of the protein concentration. The EC50 and Ki values were calculated with GraphPad software (log(agonist) vs. response (variable slope) model) in combination with the web tool developed by Nikolovska-Coleska et al..
Fluorescence polarization inhibition assay and data analysis for 41m and 42m compounds was performed as described in the Material and Methods section of the manuscript. Briefly, 50 nM solution of the BIR3 XIAP protein in polarization buffer was added into phosphoroorganic compound solution (from 50 μM to 0.0537 nM). After 15 min incubation at r.t. the fluorescent probe 4 (2 nM) was added.
The values were read after 30 minutes from the moment the probe was added. The obtained fluorescence polarization values were used to determine the percentage of inhibition which was plotted as a function of the protein concentration (Supplementary Figure S4).
(1 picture or pasted object on this page, not shown here)

T1 sequence (P98170 252-356 limits assumed): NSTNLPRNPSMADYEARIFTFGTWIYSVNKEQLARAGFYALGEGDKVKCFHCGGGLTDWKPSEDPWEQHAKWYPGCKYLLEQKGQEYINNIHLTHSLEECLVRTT

## [NH2][Pt]([NH2])([Cl])[Cl] [CDDP, cisplatin, reference compound]
UMUC-3; read-out: IC50 ± SD (n = 3) UMUC-3
  IC50: 3.73 ± 0.63 µM
LoVo; read-out: IC50 ± SD (n = 3) LoVo
  IC50: 3.9 ± 1.3 µM
MCF-7; read-out: IC50 ± SD (n = 3) MCF-7
  IC50: 5.36 ± 1.8 µM
MDA-MB-231; 72 h
  IC50: 22.1 ± 5.26 µM
A549; read-out: IC50 ± SD (n = 3) A549
  IC50: 1.6 ± 0.4 µM
MCF-10A; read-out: IC50 ± SD (n = 3) MCF-10A
  IC50: 6.76 ± 1.2 µM

## CN[C@@H](C)C(=O)N[C@H](C(=O)N1CCC[C@H]1C(=O)NC(Cc1ccccc1)P(=O)(c1ccccc1)c1ccccc1)C(C)C (stereo partly drawn) [Compound 13]
XIAP BIR3 domain
  inhibition at 50 µM: 100%
  Ki: 0.75 µM
XIAP BIR3 domain; read-out: EC50
  EC50: 1.53 µM
XIAP BIR3 domain; read-out: log EC50 (converted)
  EC50: 1.53 µM
UMUC-3
  inhibition at 10 µM: 6%
LoVo
  inhibition at 10 µM: 6%
MCF-7
  inhibition at 10 µM: 22%
MDA-MB-231; Homo sapiens, MDA-MB-231, 72 h
  IC50: 3.39 ± 0.42 µM
A549
  inhibition at 10 µM: 2%
MCF-10A
  inhibition at 10 µM: 5%

## CN[C@@H](C)C(=O)N[C@H](C(=O)N1CCC[C@H]1C(=O)NC(Cc1ccccc1)P(=O)(c1ccccc1)c1ccccc1)C1CCCCC1 (stereo partly drawn) [Compound 14]
XIAP BIR3 domain
  inhibition at 50 µM: 100%
  Ki: 0.64 µM
XIAP BIR3 domain; read-out: EC50
  EC50: 1.31 µM
XIAP BIR3 domain; read-out: log EC50 (converted)
  EC50: 1.31 µM
UMUC-3
  inhibition at 10 µM: 8%
LoVo
  inhibition at 10 µM: 7%
MCF-7
  inhibition at 10 µM: 20%
MDA-MB-231; Homo sapiens, MDA-MB-231, 72 h
  IC50: 2.72 ± 0.69 µM
A549
  inhibition at 10 µM: 5%
MCF-10A
  inhibition at 10 µM: 1%

## CN[C@@H](C)C(=O)N[C@H](C(=O)N1CCC[C@H]1C(=O)Nc1snnc1-c1ccccc1)C1CCCCC1 [GDC-0152, reference compound]
XIAP BIR3 domain; read-out: EC50
  EC50: 0.01 µM
UMUC-3
  inhibition at 10 µM: 13%
LoVo
  inhibition at 10 µM: 9%
MCF-7
  inhibition at 10 µM: 18%
MDA-MB-231; Homo sapiens, MDA-MB-231, 72 h
  IC50: 0.88 ± 0.21 µM
A549
  inhibition at 10 µM: 13%
MCF-10A
  inhibition at 10 µM: 1%

## CN[C@@H](C)C(=O)N[C@H](C(=O)N1CCC[C@H]1c1nc(C(=O)c2ccc(F)cc2)cs1)C1CCCCC1 [LCL-161, reference compound]
UMUC-3
  inhibition at 10 µM: 16%
LoVo
  inhibition at 10 µM: 26%
MCF-7
  inhibition at 10 µM: 19%
MDA-MB-231; Homo sapiens, MDA-MB-231, 72 h
  IC50: 0.76 ± 0.23 µM
A549
  inhibition at 10 µM: 11%
MCF-10A
  inhibition at 10 µM: 2%
